Laboratory results as given in patent US8580525B2, “Methods of screening for LTRPC7 modulators” (The Queen's Medical Center, priority 2000, dated 2013).
Entries after “also recorded” stand apart in the source; their conditions may differ.

Legend:
Type in all cases: cell-based
LTRPC7 [1] = molecular target: T1, LTRPC7 (Mus musculus, UniProt Q923J1); assay: Simultaneous patch-clamp of MagNuM and fura-2 measurement of [Ca^2+]i, block by Mg.ATP; conditions: 3 mM Mg.ATP in internal solution
T1 construct: expressed in transfected cells
Excerpt: Based on the above permeation data, we conclude that LTRPC7 must be viewed as a potential entry pathway for a wide variety of trace and toxic metal ions. […] We therefore performed two sets of experiments to address this issue. In the first, we assayed Ca^2+ permeation of LTRPC7 under conditions in which intracellular Ca^2+ is left unbuffered and LTRPC7 is activated or suppressed by manipulation of patch pipette [ATP]i. To this end, HEK-293 cells expressing LTRPC7 were kept in a bath solution with 2 mM each of Ca^2+ and Mg^2+ and were perfused with a Cs-glutamate-based internal solution containing 200 μM fura-2. Simultaneous development of MagNuM was monitored under whole-cell patch-clamp and delivering, from a holding potential of 0 mV, repetitive voltage ramps that spanned −100 to +100 mV over 50 ms at a rate of 0.5 Hz. When Mg.ATP was absent in the pipette, MagNuM rapidly activated, as witnessed by the increase in both inward and outward currents (FIG. 11A) as well as its characteristic current-voltage relationship (FIG. 11B). […] The progressive decrease in amplitude of hyperpolarization-driven changes in [Ca^2+]i observed under these conditions is likely due to increased Ca^2+ buffering as fura-2 equilibrates with the cytosol at its final concentration of 200 μM. […]

LTRPC7 [2] = molecular target: T1, LTRPC7; assay: Permeation of divalent metal ions in isotonic solutions, whole-cell patch-clamp; conditions: for effect on outward current / effect on inward current: isotonic solution (120 mM) of test cation for 60 s, HEK-293 over-expressing LTRPC7; for effect on outward current: +80 mV; for effect on inward current: -80 mV; for permeation sequence based on peak inward currents: isotonic solutions
Description: (§1) For patch-clamp experiments, cells grown on glass coverslips were transferred to the recording chamber and kept in a standard modified Ringer's solution of the following composition (in mM): NaCl 145, KCl 2.8, CsCl 10, CaCl2 1, MgCl2 2, glucose 10, Hepes.NaOH 10, pH 7.2. In some experiments, nominally Ca^2+ and/or Mg^2+-free extracellular solutions or isotonic Ca^2+ solutions (120 mM CaCl2) were applied by pressure ejection from wide-tipped pipettes. Intracellular pipette-filling solutions contained (in mM): Cs-glutamate 145, NaCl 8, MgCl2 1, Cs-BAPTA 10, pH 7.2 adjusted with CsOH. In some experiments, Cs-glutamate was replaced equimolarly by K-glutamate or N-methyl-D-glucamine-chloride. Patch-clamp experiments were performed in the tight-seal whole-cell configuration at 21-25° C. High-resolution current recordings were acquired by a computer-based patch-clamp amplifier system (EPC-9, HEKA, Lambrecht, Germany). Sylgard-coated patch pipettes had resistances between 2-4 M after filling with the standard intracellular solution. Immediately following establishment of the whole-cell configuration, voltage ramps of 50 ms duration spanning the voltage range of −100 to +100 mV were delivered from a holding potential of 0 mV at a rate of 0.5 Hz over a period of 200 to 400 seconds. All voltages were corrected for a liquid junction potential of 10 mV between external and internal solutions when internal solutions contained glutamate. Currents were filtered at 2.3 kHz and digitized at 100 μs intervals. Capacitive currents and series resistance were determined and corrected before each voltage ramp using the automatic capacitance compensation of the EPC-9. The low-resolution temporal development of currents at a given potential was extracted from individual ramp current records by measuring the current amplitudes at voltages of −80 mV or +80 mV.
The use of isotonic solutions to probe divalent cation entry through LTRPC7 avoids complications in permeation properties arising from ion-ion interactions, and therefore allows unequivocal interpretation of inward currents—maintained or increased inward currents can only be consistent with permeation of the available extracellular cation. Isotonic solutions of 120 mM of each divalent ion yielded appropriate osmolarities within 10 mOsm from the standard bath and pipette solutions. In this series of experiments, the cells were bathed in the standard external solution containing 1 mM Ca^2+ and 2 mM Mg^2+. At 200 s, when MagNuM had reached its full amplitude, isotonic solutions of each transition metal were applied for 60 s via a puffer pipette.

LTRPC7 [3] = molecular target: T1, LTRPC7; assay: Equimolar substitution of 10 mM Ca^2+ by other divalent metal ions, whole-cell patch-clamp; conditions: 10 mM test cation replacing 10 mM Ca^2+, HEK-293 over-expressing LTRPC7; for effect on outward current / effect on inward current: 60 s; for effect on outward current: +80 mV; for effect on inward current / increase in inward current compared to Ca^2+: -80 mV; for increase in inward current compared to Ca^2+: no Mg^2+
Description: as §1
LTRPC7 represents an ion channel that is selective for divalent cations at negative membrane potentials and its activity is regulated by intracellular levels of Mg.nucleotides (Nadler et al., 2001). Although the channel readily permeates monovalent ions upon removal of all divalent ions, inward currents carried by LTRPC7 under physiological conditions are largely carried by the dominant extracellular ion species Ca^2+ and Mg^2+. Ion currents carried by LTRPC7 have therefore been designated MagNuM (for Magnesium.Nucleotide-regulated Metal ion currents). In order to assess the permeation properties of LTRPC7 for other divalent ions, we measured ionic currents in substitution experiments, where 10 mM Ca^2+ was replaced with 10 mM of other divalent cations (FIG. 7). In these experiments, HEK-293 cells expressing LTRPC7 were kept in a bath solution containing 10 mM Ca^2+, without Mg^2+, and development of MagNuM was monitored by whole-cell patch-clamp as described previously (Nadler et al., 2001). When the current had reached maximal amplitude, cells were transiently exposed to an extracellular solution containing 10 mM of the test cation applied via a puffer pipette for a period of 60 s.

LTRPC7 [4] = molecular target: T1, LTRPC7; assay: Permeation and block by trivalent metal ions, whole-cell patch-clamp; conditions: for suppression of inward or outward currents carried by LTRPC7: 10 μM (data not shown); for effect on outward currents / effect on inward currents: external solution with 10 mM Ca^2+ without Mg^2+; for effect on outward currents: +80 mV; for effect on inward currents: -80 mV
Description: as §1
We next tested a series of toxic trivalent metal ions (FIG. 10), which we suspected to not permeate through LTRPC7.

LTRPC7 [5] = molecular target: T1, LTRPC7; assay: Mn^2+ quench of fura-2 fluorescence in intact cells; conditions: 1 mM Mn^2+, initial 60 s
Description: In the second approach, we assayed LTRPC7 activity in intact cells using Mn^2+ quench of fura-2 fluorescence (FIG. 11D). In this experiment, HEK-293 cells over-expressing LTRPC7 were loaded with fura-2-AM and bathed in standard external solution with 1 mM Ca^2+ and 2 mM Mg^2+. Ca^2+-independent fluorescence was monitored at 360 nm (the isosbestic wavelength of fura-2) and after 120 s, an external solution containing 1 mM Mn^2+, 1 mM Ca^2+, and 0 Mg^2+ was applied for 180 s. To determine baseline quench levels, this protocol was applied to HEK-293 cells that were transfected with the same tetracycline-inducible recombinant LTRPC7 construct, but remained uninduced. As clearly shown in FIG. 11D, the application of 1 mM Mn^2+ caused a pronounced quench of the 360 nm signal in HEK-293 cells induced to express LTRPC7 (n=5), whereas Mn^2+-induced quench of the 360 nm signal in uninduced cells (n=5) was noticeable but much less dramatic. Linear regression over the initial 60 s of Mn^2+ exposure yielded a 10-fold higher rate of Mn^2+-induced quench of fura-2 fluorescence in induced cells (28%/o/min) as compared to uninduced cells (2.9%/min).

T1 sequence (Q923J1 2-1863 limits assumed): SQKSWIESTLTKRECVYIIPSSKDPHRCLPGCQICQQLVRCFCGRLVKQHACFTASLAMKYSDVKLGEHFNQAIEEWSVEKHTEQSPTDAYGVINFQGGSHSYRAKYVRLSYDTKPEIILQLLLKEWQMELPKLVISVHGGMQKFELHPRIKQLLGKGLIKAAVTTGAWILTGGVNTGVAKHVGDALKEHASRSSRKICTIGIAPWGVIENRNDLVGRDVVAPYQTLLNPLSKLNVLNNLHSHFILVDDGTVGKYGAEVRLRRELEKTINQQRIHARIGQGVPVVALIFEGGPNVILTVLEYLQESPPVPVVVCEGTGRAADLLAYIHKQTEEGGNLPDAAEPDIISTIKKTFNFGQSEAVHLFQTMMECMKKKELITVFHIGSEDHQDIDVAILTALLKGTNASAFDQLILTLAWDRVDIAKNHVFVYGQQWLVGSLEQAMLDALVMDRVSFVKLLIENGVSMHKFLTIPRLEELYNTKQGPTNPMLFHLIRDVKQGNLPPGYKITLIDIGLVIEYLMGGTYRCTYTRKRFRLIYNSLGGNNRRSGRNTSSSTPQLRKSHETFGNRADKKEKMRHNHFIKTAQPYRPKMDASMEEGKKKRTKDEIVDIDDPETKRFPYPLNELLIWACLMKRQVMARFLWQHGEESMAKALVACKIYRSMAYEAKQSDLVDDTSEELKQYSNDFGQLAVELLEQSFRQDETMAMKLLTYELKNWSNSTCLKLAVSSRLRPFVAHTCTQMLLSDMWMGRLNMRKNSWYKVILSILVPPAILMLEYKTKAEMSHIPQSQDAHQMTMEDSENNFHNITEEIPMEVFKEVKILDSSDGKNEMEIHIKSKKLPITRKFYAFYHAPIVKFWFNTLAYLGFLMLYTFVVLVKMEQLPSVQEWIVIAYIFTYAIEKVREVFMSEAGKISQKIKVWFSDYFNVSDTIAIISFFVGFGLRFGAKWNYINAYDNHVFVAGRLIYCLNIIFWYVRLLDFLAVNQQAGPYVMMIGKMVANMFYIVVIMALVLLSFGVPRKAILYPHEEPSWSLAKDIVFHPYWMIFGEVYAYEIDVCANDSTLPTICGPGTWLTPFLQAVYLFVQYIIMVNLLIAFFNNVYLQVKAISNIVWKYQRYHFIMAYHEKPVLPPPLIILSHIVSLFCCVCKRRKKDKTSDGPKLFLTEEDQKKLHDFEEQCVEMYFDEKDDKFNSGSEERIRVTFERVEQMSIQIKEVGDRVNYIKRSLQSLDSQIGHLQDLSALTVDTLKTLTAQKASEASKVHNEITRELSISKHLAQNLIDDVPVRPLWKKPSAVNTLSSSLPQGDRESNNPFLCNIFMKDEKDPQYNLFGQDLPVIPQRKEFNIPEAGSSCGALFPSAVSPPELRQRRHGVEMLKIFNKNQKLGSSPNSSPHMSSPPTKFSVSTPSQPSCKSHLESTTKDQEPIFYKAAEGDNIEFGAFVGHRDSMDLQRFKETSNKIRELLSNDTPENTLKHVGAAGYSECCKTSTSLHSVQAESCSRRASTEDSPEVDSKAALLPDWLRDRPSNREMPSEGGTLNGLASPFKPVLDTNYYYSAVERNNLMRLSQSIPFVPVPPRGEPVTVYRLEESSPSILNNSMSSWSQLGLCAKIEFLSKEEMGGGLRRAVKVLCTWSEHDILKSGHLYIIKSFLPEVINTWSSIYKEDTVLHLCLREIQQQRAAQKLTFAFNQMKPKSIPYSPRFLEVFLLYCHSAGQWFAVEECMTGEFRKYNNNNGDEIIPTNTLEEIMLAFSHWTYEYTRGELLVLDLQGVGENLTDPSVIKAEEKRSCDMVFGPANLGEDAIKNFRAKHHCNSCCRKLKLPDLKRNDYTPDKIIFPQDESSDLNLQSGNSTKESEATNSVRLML

Structure (SMILES) | effect on outward current (LTRPC7 [2]) | effect on inward current (LTRPC7 [2]) | effect on outward current (LTRPC7 [3]) | effect on inward current (LTRPC7 [3]) | increase in inward current compared to Ca^2+ (LTRPC7 [3]) | also measured
Nc1ncnc2c1ncn2[C@@H]1O[C@H](COP(=O)(O)OP(=O)([O-])OP(=O)([O-])O)[C@@H](O)[C@H]1O.[Mg+2] [Mg.ATP] | – | – | – | – | – | [Ca^2+]i (fura-2) (LTRPC7 [1]; HEK-293 over-expressing LTRPC7): remained similarly steady; also recorded: remains at steady basal levels; LTRPC7 activity (MagNuM currents) (LTRPC7 [1]; bath 2 mM Ca^2+ and 2 mM Mg^2+): little change in LTRPC7 activity
[Sr+2] [Sr^2+] | relatively minor inhibitions of the outward current | moderate increases of the inward | increases of the outward current | slight to moderate increases of the inward current | – | permeation sequence based on peak inward currents (LTRPC7 [2]): more effectively transported than Ca^2+ and Mg^2+; effect on outward current (LTRPC7 [3]; listed as Sr2+): increase of the outward current; effect on inward current (LTRPC7 [3]; listed as Sr2+): slight to moderate increase of the inward current
[Zn+2] [Zn^2+] | – | – | block of outward currents; also recorded: block of the outward current | large increase of the inward current | greater than three-fold | –
[Co+2] [Co^2+] | strong block of the outward current | gradual increase of the inward current | block of outward currents; also recorded: block of the outward current | slight to moderate increase of the inward current | less than double | –
[Gd+3] [Gd^3+] | – | – | – | – | – | suppression of inward or outward currents carried by LTRPC7 (LTRPC7 [4]): ineffective; relative potency as blocker of MagNuM (LTRPC7 [4]; 10 mM, Gd^3+ versus La^3+): more potent inhibitor; also recorded: more potent blocker of MagNuM; effect on outward currents (LTRPC7 [4]; 10 mM): completely suppressed; effect on inward currents (LTRPC7 [4]; 10 mM): inhibited inward currents with no sign of significant permeation
[La+3] [La^3+] | – | – | – | – | – | suppression of inward or outward currents carried by LTRPC7 (LTRPC7 [4]): ineffective; effect on outward currents (LTRPC7 [4]; 10 mM): far less effective in suppressing outward currents; effect on inward currents (LTRPC7 [4]; 10 mM): inhibited inward currents with no sign of significant permeation
[Mn+2] [Mn^2+] | strong block of the outward current | gradual increase of the inward current | block of outward currents; also recorded: block of the outward current | slight to moderate increase of the inward current | less than double | rate of Mn^2+-induced quench, induced compared to uninduced cells (LTRPC7 [5]): 10 fold; rate of Mn^2+-induced quench of fura-2 fluorescence (LTRPC7 [5]; 360 nm, uninduced cells): 2.9 %/min
[Mg+2] [Mg^2+] | block of the outward current | – | strongest block of outward currents; also recorded: block of the outward current | slight to moderate increase of the inward current | less than double | –
[Ni+2] [Ni^2+] | strong block of the outward current | large increase of the inward | block of outward currents; also recorded: block of the outward current | large increase of the inward current | greater than three-fold | permeation sequence based on peak inward currents (LTRPC7 [2]): most permeant metal
[Ca+2] [Ca^2+] | block of the outward current | increase of the inward | – | – | – | effect on outward current (LTRPC7 [2]; listed as CaCl2): strongly inhibited outward currents; effect on inward current (LTRPC7 [2]; listed as CaCl2): enhanced inward currents
[Cd+2] [Cd^2+] | – | – | increases of the outward current | slight to moderate increases of the inward current | – | effect on outward current (LTRPC7 [3]; listed as Cd 2+): increase of the outward current; effect on inward current (LTRPC7 [3]; listed as Cd 2+): slight to moderate increase of the inward current
[Ba+2] [Ba^2+] | relatively minor inhibitions of the outward current | moderate increases of the inward | increase of the outward current | slight to moderate increase of the inward current | – | permeation sequence based on peak inward currents (LTRPC7 [2]): more effectively transported than Ca^2+ and Mg^2+
